# ChEMBL document CHEMBL3301361, “Experimental in vitro DMPK and physicochemical data on a set of publicly disclosed compounds”
# How the values were obtained:
# in vitro = conditions: human, plasma
# physchem [1] = conditions: octan-1-ol/water
# physchem [2] = conditions: pH 7.4 buffer
compound,measurement,setting,value
CC(=O)NCc1cccc(C(=O)O)c1,fraction unbound at 5 h,in vitro; PPB,0.17
C=CC1(C)CC(=O)C2(O)C(C)(O1)C(OC(C)=O)C(O)C1C(C)(C)CCC(O)C12C (configuration not stated),fraction unbound at 5 h,in vitro; PPB,0.16
COc1cnc(-c2ccccn2)nc1N(C)C,fraction unbound at 5 h,in vitro; PPB,0.163
CC(=O)S[C@@H]1CC2=CC(=O)CC[C@]2(C)C2CC[C@@]3(C)C(CC[C@@]34CCC(=O)O4)C21 (some centres not stated),fraction unbound at 5 h,in vitro; PPB,0.24
NC(=O)c1cccc2c3c([nH]c12)CCCC3,fraction unbound at 5 h,in vitro; PPB,0.28
O=C(Cc1cccs1)Nc1ccon1,fraction unbound at 5 h,in vitro; PPB,0.563
Cc1ccc(CNC(=O)CCS(=O)(=O)c2ccc(Br)cc2)cc1,fraction unbound at 5 h,in vitro,0.013
CN1CCN2c3ccccc3CC3(C(=O)N(C)C(=O)N(C)C3=O)C2C1 (configuration not stated),fraction unbound at 5 h,in vitro,0.035
Cc1ccc(Cl)cc1NC(=O)CCS(=O)(=O)c1ccc(Br)s1,fraction unbound at 5 h,in vitro,0.0111
O=C(CCS(=O)(=O)c1ccc(Br)cc1)Nc1ccc2c(c1)OCO2,fraction unbound at 5 h,in vitro,0.0119
COc1cc(/C=C2\SC(=O)NC2=O)ccc1Oc1ccc(C#N)cc1C(F)(F)F,fraction unbound at 5 h,in vitro,0.0005
Nc1nc(OCC2CCC2)nc2c1ncn2[C@@H]1O[C@H](CF)[C@@H](O)[C@H]1O,fraction unbound at 5 h,in vitro; PPB,0.228
C[C@H]1O[C@@H](n2cnc3c(N)nc(OCC4CC45CC5)nc32)[C@H](O)[C@@H]1O (some centres not stated),fraction unbound at 5 h,in vitro; PPB,0.249
O=C1COc2ccc(CNC3CCN(CCN4C(=O)COc5ccc([N+](=O)[O-])cc54)CC3)nc2N1,fraction unbound at 5 h,in vitro,0.249
CC(=O)Nc1cccc2c1c(Oc1ccc(Cl)cc1)c(C)n2CC(=O)O,fraction unbound at 5 h,in vitro; PPB,0.124
CC(C(=O)OC1CC[N+](C)(C)CC1)(c1ccccc1)N1CCCCC1 (configuration not stated),fraction unbound at 5 h,in vitro; PPB,0.78
CN[C@@H](C)C(=O)N[C@H](C(=O)N[C@H]1CCN(CCCc2ccccc2)C1)C1CCCCC1,fraction unbound at 5 h,in vitro; PPB,0.36
CN[C@@H](C)C(=O)N[C@H](C(=O)N[C@H]1CCCCN(CCc2ccccc2)C1)C1CCCCC1,fraction unbound at 5 h,in vitro; PPB,0.262
COc1cc(OC)c(S(=O)(=O)N2c3ccccc3CCC2C)cc1NC(=S)NCC(=O)O (configuration not stated),fraction unbound at 5 h,in vitro; PPB,0.309
COc1cc(OC)c(S(=O)(=O)N2c3ccccc3CCC2C)cc1NC(=O)NCC(=O)O (configuration not stated),fraction unbound at 5 h,in vitro; PPB,0.28
COc1cc(OC)c(S(=O)(=O)N2c3ccccc3CCC2C)cc1NC(=O)COCC(=O)O (configuration not stated),fraction unbound at 5 h,in vitro; PPB,0.266
COc1cc(OC)c(S(=O)(=O)N2c3ccccc3CCC2C)cc1NC(=O)CCC(=O)O (configuration not stated),fraction unbound at 5 h,in vitro; PPB,0.186
COc1cc(OC)c(S(=O)(=O)N2c3ccccc3CCC2C)cc1NC(=O)CSCC(=O)O (configuration not stated),fraction unbound at 5 h,in vitro; PPB,0.126
COc1cc(OC)c(S(=O)(=O)NCc2ccccc2N2CCC(CO)CC2)cc1NC(C)=O,fraction unbound at 5 h,in vitro; PPB,0.126
COc1cc(OC)c(S(=O)(=O)NCc2ccccc2N2CCC(CO)CC2)cc1NC(=O)CCC(=O)O,fraction unbound at 5 h,in vitro; PPB,0.403
COc1cc(OC)c(S(=O)(=O)NCc2ccccc2N2CCC(COC(=O)CCC(=O)O)CC2)cc1NC(=O)CCC(=O)O,fraction unbound at 5 h,in vitro; PPB,0.151
COc1cc(OC)c(S(=O)(=O)NCc2ccccc2N2CCC(C(=O)O)CC2)cc1NC(=O)CCC(=O)O,fraction unbound at 5 h,in vitro; PPB,0.194
O=c1cc(N2CCOCC2)nc2n(Cc3cccc(F)c3)ccn12,fraction unbound at 5 h,in vitro; PPB,0.22
NC(=O)[C@H](Cc1ccccc1)NC(=O)OCc1ccccc1,fraction unbound at 5 h,in vitro; PPB,0.19
CCNC(=O)c1cc2c(-n3ccc(C(F)(F)F)n3)c(-c3cncc(C(=O)O)c3)cnc2[nH]1,fraction unbound at 5 h,in vitro; PPB,0.117
CC(C)NC(=O)c1cc2c(-n3ccc(C(F)(F)F)n3)c(-c3cncc(C(=O)O)c3)cnc2[nH]1,fraction unbound at 5 h,in vitro; PPB,0.228
CCNC(=O)c1cc2c(-n3nc(C(F)(F)F)cc3C)c(-c3cncc(C(=O)O)c3)cnc2[nH]1,fraction unbound at 5 h,in vitro; PPB,0.454
CCNC(=O)c1cc2c(-n3ccc(C(F)(F)F)n3)c(-c3cncc(C(N)=O)c3)cnc2[nH]1,fraction unbound at 5 h,in vitro; PPB,0.36
CCNC(=O)c1cc2c(-n3ccc(C(F)(F)F)n3)c(-c3cncc(C(=O)NC)c3)cnc2[nH]1,fraction unbound at 5 h,in vitro; PPB,0.148
CC(=O)Nc1ccc2ccn(-c3cc(NCCN4CCOCC4)n4ncc(C#N)c4n3)c2c1,fraction unbound at 5 h,in vitro; PPB,0.112
COc1cnc(-c2ccccn2)nc1N1CCOCC1,fraction unbound at 5 h,in vitro; PPB,0.339
N=C(N)c1ccc(CNC(=O)C2(NC(=O)[C@H](NCC(=O)O)C3CCCCC3)Cc3ccccc3C2)cc1,fraction unbound at 5 h,in vitro; PPB,0.54
COc1ccc2ncc(=O)n(CCN3CC[C@H](NCc4cc5c(cn4)OCCO5)[C@H](O)C3)c2c1,fraction unbound at 5 h,in vitro; PPB,0.194
COc1ccc2ncc(=O)n(CCN3CC[C@@H](NCc4cc5c(cn4)OCCO5)[C@@H](O)C3)c2c1,fraction unbound at 5 h,in vitro; PPB,0.142
COc1ccc2ncc(=O)n(CCN3CC[C@@H](NCc4cc5c(cn4)OCCO5)[C@H](O)C3)c2c1,fraction unbound at 5 h,in vitro; PPB,0.179
COc1ccc2ncc(=O)n(CCN3CC[C@@H](NCc4ccc5c(n4)NC(=O)CO5)[C@@H](OC)C3)c2c1,fraction unbound at 5 h,in vitro; PPB,0.28
COc1ccc2ncc(=O)n(CCN3CC[C@@H](NCc4ccc5c(n4)NC(=O)CO5)[C@H](OC)C3)c2c1,fraction unbound at 5 h,in vitro; PPB,0.179
COCCC(Oc1ncnc2c1cnn2-c1ccccc1OC)C(=O)Nc1ccc(C)cn1 (configuration not stated),fraction unbound at 5 h,in vitro; PPB,0.139
O=C1NCCc2[nH]c(-c3ccncc3)cc21,fraction unbound at 5 h,in vitro; PPB,0.586
Cc1csc(N)c1C(N)=O,fraction unbound at 5 h,in vitro; PPB,0.324
COc1ccc(-c2cc(O)nc(N)n2)cc1C#N,fraction unbound at 5 h,in vitro; PPB,0.126
CCc1[nH]c2nc(Sc3cnc4ccc[n+]([O-])c4c3)nc(N3CC[C@@H](N)C3)c2c1Cl,fraction unbound at 5 h,in vitro; PPB,0.204
NC1=NC(c2ccc(F)cc2)Cc2ccc(F)cc21 (configuration not stated),fraction unbound at 5 h,in vitro; PPB,0.329
O=C(O)c1cn(Cc2ccccc2)c2cc(N3CCNCC3)c(F)cc2c1=O,fraction unbound at 5 h,in vitro; PPB,0.299
CN(C)CCNc1cc(-c2ccncc2)nc2ccccc12,fraction unbound at 5 h,in vitro; PPB,0.142
O=C(NCC12CC3CC(CC(C3)C1)C2)c1cc(C(=O)N2CC3CNCC(C2)O3)ccc1Cl,fraction unbound at 5 h,in vitro; PPB,0.309
C[C@](N)(Cc1ccccc1)c1ccccc1,fraction unbound at 5 h,in vitro,0.179
CC(C)Cc1c(C(=O)C(N)=O)c2c(OCC(=O)NS(C)(=O)=O)cccc2n1Cc1ccccc1,fraction unbound at 5 h,in vitro,0.0251
COCCOc1cc2ncc(C(N)=O)c(Nc3ccc(F)cc3F)c2cc1N1CCN(C)CC1,fraction unbound at 5 h,in vitro; PPB,0.454
COCCOc1cc2ncc(C(N)=O)c(Nc3cc(C)ccc3F)c2cc1N1CCN(C)CC1,fraction unbound at 5 h,in vitro; PPB,0.163
CCOc1cc2ncc(C(N)=O)c(Nc3cccc(Cl)c3Cl)c2cc1N1CCN(C(=O)CO)CC1,fraction unbound at 5 h,in vitro; PPB,0.163
COCCOc1cc2ncc(C(N)=O)c(Nc3cccc(Cl)c3F)c2cc1N1CCN(C)CC1,fraction unbound at 5 h,in vitro; PPB,0.392
CCOc1cc2ncc(C(N)=O)c(Nc3ccc(F)cc3F)c2cc1N1CCCN(C)CC1,fraction unbound at 5 h,in vitro; PPB,0.304
CN1CCN(C(=O)c2cc(Cc3n[nH]c(=O)c4ccccc34)ccc2F)CC1,fraction unbound at 5 h,in vitro; PPB,0.289
O=C(NCC12CC3CC(CC(C3)C1)C2)c1cc(OCCNCCCO)ncc1Cl,fraction unbound at 5 h,in vitro; PPB,0.11
NC1=NC(c2ccc(F)cc2)Cc2ccccc21 (configuration not stated),fraction unbound at 5 h,in vitro; PPB,0.36
CC(C)C(=O)Nc1ccc([N+](=O)[O-])c(C(F)(F)F)c1 [FLUTAMIDE],logD,physchem [1]; pH 7.4,3.46
same,solubility thermodynamic,physchem [2],89.1 µM
Cc1cccc(-c2nn3c(c2-c2ccnc4ccc(C(N)=O)cc24)CCC3)n1 [GALUNISERTIB],logD,"physchem [1]; pH 7.4, LogD7.4",1.71
same,solubility thermodynamic,physchem [2],182 µM
COc1ccc2c(c1)[nH]c1c(C)nccc12 [HARMINE],logD,physchem [1]; pH 7.4,2.9
same,solubility thermodynamic,physchem [2],55 µM
O=C(N[C@@H](Cc1ccccc1)[C@@H](O)C(=O)N1C[C@@H](O)[C@@H](O)C1)c1cc2cc(Cl)ccc2[nH]1 [INGLIFORIB],logD,"physchem [1]; pH 7.4, LogD7.4",2.8
same,solubility thermodynamic,physchem [2],436 µM
O=c1cc(N2CCOCC2)oc2c(-c3ccccc3)cccc12 [LY-294002],logD,"physchem [1]; pH 7.4, LogD7.4",2.9
same,solubility thermodynamic,physchem [2],302 µM
NC1(c2ccc(-c3nc4ccn5c(=O)[nH]nc5c4cc3-c3ccccc3)cc2)CCC1 [MK-2206],logD,"physchem [1]; pH 7.4, LogD7.4",2.5
same,solubility thermodynamic,physchem [2],4.7 µM
Nc1ccccc1NC(=O)c1ccc(CNc2nccc(-c3cccnc3)n2)cc1 [MOCETINOSTAT],logD,"physchem [1]; pH 7.4, LogD7.4",2.28
same,solubility thermodynamic,physchem [2],13.5 µM
CCOC(=O)Nc1ccc2c(c1)N(C(=O)CCN1CCOCC1)c1ccccc1S2 [MORICIZINE],logD,"physchem [1]; pH 7.4, LogD7.4",3.1
same,solubility thermodynamic,physchem [2],83.2 µM
COc1cc2c(c(OC)c1OC)-c1ccc(O)cc1[C@@H](NC(C)=O)CC2 [N-ACETYLCOLCHINOL],logD,physchem [1]; pH 7.4,1.81
same,solubility thermodynamic,physchem [2],813 µM
COC(=O)C1=C(C)NC(C)=C(C(=O)OCC(C)C)C1c1ccccc1[N+](=O)[O-] (configuration not stated) [NISOLDIPINE],logD,"physchem [1]; pH 7.4, LogD7.4",3.59
same,solubility thermodynamic,physchem [2],2.2 µM
NC(=O)c1c(OCc2c(F)cc(Br)cc2F)nsc1NC(=O)NCCCCN1CCCC1 [OSI-632],logD,"physchem [1]; pH 7.4, LogD7.4",2.5
same,solubility thermodynamic,physchem [2],77.6 µM
COc1ccc(Cc2nccc3cc(OC)c(OC)cc23)cc1OC [PAPAVERINE],logD,physchem [1]; pH 7.4,2.81
same,solubility thermodynamic,physchem [2],38 µM
Nc1ncnc2c1C(=O)N(c1ccc([C@H]3CC[C@H](CC(=O)O)CC3)cc1)CCO2 [PF-04620110],logD,"physchem [1]; pH 7.4, LogD7.4",-0.5
same,solubility thermodynamic,physchem [2],759 µM
CCc1cccc(CC)c1NC(=O)N1Cc2n[nH]c(NC(=O)c3ccc(N4CCN(C)CC4)cc3)c2C1 [PHA-680632],logD,"physchem [1]; pH 7.4, LogD7.4",3.31
same,solubility thermodynamic,physchem [2],107 µM
CCc1ccc(CCOc2ccc(CC3SC(=O)NC3=O)cc2)nc1 (configuration not stated) [PIOGLITAZONE],logD,"physchem [1]; pH 7.4, LogD7.4",2.8
same,solubility thermodynamic,physchem [2],2 µM
CC(=O)[C@H]1CC[C@H]2[C@@H]3CCC4=CC(=O)CC[C@]4(C)[C@H]3CC[C@]12C [PROGESTERONE],logD,physchem [1]; pH 7.4,3.94
same,solubility thermodynamic,physchem [2],37.2 µM
Cn1c(=O)c(Oc2ccc(F)cc2F)cc2cnc(NC3CCOCC3)nc21 [R-1487],logD,"physchem [1]; pH 7.4, LogD7.4",2.76
same,solubility thermodynamic,physchem [2],20.4 µM
O=C(CO)N1CCC(c2[nH]nc(-c3ccc(Cl)cc3)c2-c2ccncn2)CC1 [SD-0006],logD,"physchem [1]; pH 7.4, LogD7.4",1.85
same,solubility thermodynamic,physchem [2],60.3 µM
CC(=O)Nc1ccc(C(=O)Nc2ccccc2N)cc1 [TACEDINALINE],logD,"physchem [1]; pH 7.4, LogD7.4",0.82
same,solubility thermodynamic,physchem [2],631 µM
C[C@@H]1CN(Cc2ccc(F)cc2)[C@@H](C)CN1C(=O)c1cc2c(C(=O)C(=O)N(C)C)cn(C)c2cc1Cl [TALMAPIMOD],logD,physchem [1]; pH 7.4,3.6
same,solubility thermodynamic,physchem [2],52.5 µM
Cn1c(C#N)ccc1-c1ccc2c(c1)C(C)(C)OC(=S)N2 [TANAPROGET],logD,"physchem [1]; pH 7.4, LogD7.4",3.4
same,solubility thermodynamic,physchem [2],3.6 µM
COC1(c2cc(F)cc(OCc3ccc4c(ccc(=O)n4C)c3)c2)CCOCC1 [ZD-2138],logD,"physchem [1]; pH 7.4, LogD7.4",3.52
same,solubility thermodynamic,physchem [2],3.2 µM
FC(F)c1nc2ccccc2n1-c1nc(N2CCOCC2)nc(N2CCOCC2)n1 [ZSTK-474],logD,"physchem [1]; pH 7.4, LogD7.4",3.04
same,solubility thermodynamic,physchem [2],0.7 µM
